Data: US20200255492A1, “LEPTIN PEPTIDES AND THEIR USE FOR TREATING NEUROLOGICAL DISORDERS” (UNIVERSITY OF DUNDEE, priority 2017, published 2020)

Tests used:
mitochondria = assay: MitoRed analysis of mitochondrial morphology after 6-OHDA (cellular Parkinson's Disease model); format: cell-based; details: 100 μM; 1 hour
Protocol: Cultures were established on 3 separate occasions in quadruplicate and stained with MitoRED to identify mitochondria after 1 hour of treatment. Statistical significance relative to untreated control is denoted with ** where P<0.01 and *** where P<0.001. Representative images of 100 μM 6-OHDA-treated MitoRED stained cultures (C) and 100 μM 6-OHDA and leptin116-130 co-treated MitoRED stained cultures are shown. Scale bar represents […].
The human neuroblastoma cell line, SH-SY5Y (ECACC, UK) was maintained in Dulbecco's Modified Eagle Medium supplemented with glucose ([…]) and 10% (v/v) cosmic calf serum (Fisher Scientific, UK) at 37° C. in a humidified atmosphere of 5% CO2, 95% air and allowed to reach 70-80% confluence before seeding. Cells (passage 10-18) were plated at 2×10^5 cells on 13 mm borosilicate class coverslips or at 10 000 cells per well in 96 well tissue culture plates (Nunc, VWR, UK) prior to treatment. Reagents used were (from Sigma UK unless stated) 1 nM human leptin, leptin (116-121), leptin (117-122) and leptin (117-125); 0.0001-1 nm murine leptin fragments leptin (116-121), leptin (117-122) and leptin (116-130); 100 μM 6-hydroxydopamine; 10 μM CuCl2; […] Aβ1-42.
Cells were treated with pre-warmed cell culture medium containing 1 μM MitoRed ((9-[2-(4′-Methylcoumarin-7′-oxycarbonyl)phenyl]-3,6-bis(diethylamino)xanthylium chloride) and returned to the incubator for 45 minutes. Following fixation in NBF for 15 minutes, cells were washed 3 times in PBS. Coverslips were mounted in fluorescence mountant onto microscope slides and imaged on the Zeiss Axio MR2 microscope. The mean mitochondrial area and index of fragmentation (number of mitochondria: total area of mitochondrial material) were calculated using Fiji.

[1] = tested on: GluA1 surface expression in cultured hippocampal neurons; assay: Surface labelling of AMPA receptor subunit GluA1 (immunocytochemistry); format: cell-based, Sprague Dawley rats; details: 10 nM; 15 min
[2] = tested on: differentiated SH-SY5Y human neuronal cells; assay: MTT assay of mitochondrial activity (cell viability); format: cell-based; details: 10 nM; n=11
Protocol: (§1) The human neuroblastoma cell line, SH-SY5Y (ECACC, UK) was maintained in Dulbecco's Modified Eagle Medium supplemented with glucose ([…]) and 10% (v/v) cosmic calf serum (Fisher Scientific, UK) at 37° C. in a humidified atmosphere of 5% CO2, 95% air and allowed to reach 70-80% confluence before seeding. Cells (passage 10-18) were plated at 10 000 cells per well in 96 well tissue culture plates (Nunc, VWR, UK) and at a density of 2×10^5 cells in 35 mm dishes for protein extraction. To induce differentiation, cells were cultured in DMEM supplemented with glucose ([…]), 1% (v/v) cosmic calf serum and 10 μM retinoic acid for 5 days. Thereafter they were incubated in DMEM supplemented with glucose ([…]), serum replacement 2 (2%; Sigma, UK) and 18 μM 5-fluorodeoxyuridine to inhibit proliferation of undifferentiated cells. The 50% of the medium was changed every 2-3 days and pharmacological treatment was carried out 7 days after switching to this medium. Reagents used were (from Sigma UK unless stated) 0.1-10 nM human leptin and leptin (116-130); 0.1-10 nM leptin (22-56; Bachem; Switzerland); 10 nM leptin (116-121) leptin (117-122), leptin (124-129) or leptin (125-130; all Severn Biotech, UK); 5 μM copper chloride; […], 5 μM WP1066 or 50 nM wortmannin. All treatments were added to the culture at the same time and survival assays were carried out after 96 h treatment. Protein samples for signaling ELISA were extracted 3 h after exposure to the relevant reagents and for biomarker expression after 72 hours.
(§2) The concentration of lactate dehydrogenase (LDH) in the culture medium or the mitochondrial activity within cells was used to monitor the level of cell death, as previously (Oldreive and Doherty 2010). In certain experiments, a Crystal violet assay was used to assess total cell number. Cells were fixed in neutral buffered formalin and washed 3 times in PBS prior to staining with 0.01% crystal violet acetate for 5 min. Plates were washed 5-10 times in dH2O and cells solubilised in 100 μl dimethyl sulfoxide (DMSO) before reading the absorbance on a Biohit BP100 plate reader. For all assays, data is expressed as percentage relative to control, untreated wells to normalize for differences in plating density between individual experiments.
To confirm the findings of the LDH assay, cells were treated with Aβ1-42 alone or with a 10 nM of leptin, leptin (116-130) or the listed hexamers, and mitochondrial activity, as a measure of cell viability, determined by MTT assay. A significant increase in mitochondrial activity was detected following treatment with either leptin or leptin (116-130; both 10 nM). […] Thus for Aβ1-42-treated cells, 10 nM leptin and 10 nM leptin (116-130) increased mitochondrial activity by 32.6±5.2% and 40.9+5.8% respectively compared with Aβ1-42 alone (n=11; P<0.001; FIG. 11B); an effect that was mirrored by 10 nM leptin (116-121) and leptin (117-122); 43.61±3.9% and 40.5±3.7*% (n=11; P<0.001; FIG. 11B), but not by 10 nM leptin (124-129) or leptin (125-130) (n=11; P>0.5; FIG. 11B). This reinforces the findings from the LDH assay that similar to either leptin or leptin (116-130), treatment with leptin (116-121) or leptin (117-122) reduces neuronal death in response to AD-linked toxins in vitro.

[3] = tested on: differentiated human neural cells (SH-SY5Y); assay: LDH release assay (membrane leakage, cell death); format: cell-based; details: 10 nM; 10 μM Aβ1-42; n=11
Protocol: as §1, §2
To determine whether leptin (116-130) has neuroprotective actions, the effects of leptin (116-130) on the viability of differentiated human neural cells (SH-SY5Y) was examined after exposure to either 5 μM CuCl2 or 10 μM Aβ1-42. Cells were treated with the toxin alone or with a range of concentrations (10-0.1 nM) of leptin or leptin (116-130). […] Thus like leptin, treatment with leptin (116-130) reduces neuronal death in response to AD-linked toxins in vitro.

[4] = tested on: phosphorylated tau (p-tau); assay: ELISA of phosphorylated tau relative to α-tubulin; format: cell-based, human; details: 10 nM; n=5
Protocol: as §1
Protein from cultures was extracted into 500 μl Tris-buffered saline containing protease inhibitor cocktail, and a Bradford assay used to determine protein concentration. Samples were diluted to give equal loading onto ELISA plates. Commercially available ELISA kits were used in accordance with the manufacturer's instructions to determine the ratio of pan-STAT3 to phospho-STAT3 (Sigma, UK) and pan-Akt to phospho-Akt (Sigma, UK) and the levels of alpha-tubulin and phosphorylated tau (Sigma, UK). Each protein sample was run in duplicate using samples derived from at least 5 biological repeats.
Hyper-phosphorylation of tau is the underpinning mechanism of the development of neurofibrillary tangles—one of the key pathological feature of AD. Human SH-SY5Y neuronal cells were exposed to Aβ1-42 alone or in combination with 10 nM leptin, leptin (116-130), leptin (116-121), leptin (117-122), leptin (124-129) or leptin (125-130). Protein was extracted for ELISA assay and the ratio of p-tau to the house-keeping protein α-tubulin determined (FIG. 11C). […] Thus for Aβ1-42-treated cells, 10 nM leptin and 10 nM leptin (116-130) reduced p-tau expression by 56.2±8.0% and 58.9+4.6% respectively compared with Aβ1-42 alone (n=5; P<0.001; FIG. 11C); an effect that was mirrored by 10 nM leptin (116-121) and leptin (117-122); 58.1±4.0% and 45.48±6.1% (n=5; P<0.001 and P<0.01 respectively; FIG. 11C), but not by 10 nM leptin (124-129) or leptin (125-130)(n=5; P>0.5; FIG. 11C).

acute hippocampal slices = assay: HFS-induced LTP with leptin hexamers; format: cell-based, Sprague Dawley rats; details: 10 nM for 50 min prior to HFS; control LTP 117±10.8% / 125±4.9%
Protocol: Parasagittal hippocampal slices (300 μm) were prepared from either P13-21 or 12-24-week-old male Sprague Dawley rats as previously (Moult et al. 2010). Brains were rapidly removed and placed in ice-cold artificial CSF (aCSF; bubbled with 95% O2 and 5% CO2) containing the following (in mm): 124 NaCl, 3 KCl, 26 NaHCO3, 1.25 NaH2PO4, 2 CaCl2, 1 MgSO4, and 10 d-glucose. Once prepared, parasagittal slices were allowed to recover at room temperature in oxygenated aCSF for 1 h before use. Slices were transferred to a submerged chamber maintained at room temperature and perfused with artificial cerebrospinal fluid at 2 ml min^−1. Standard extracellular recordings were used to monitor evoked field excitatory postsynaptic potentials (fEPSP) from stratum radiatum. The Schaffer collateral-commissural pathway was stimulated (constant voltage; 0.1 ms) at 0.033 Hz, using a stimulus intensity that evoked a peak amplitude ˜50% of the maximum. Synaptic potentials were low pass filtered at 2 kHz and digitally sampled at 10 kHz. The fEPSP slope was measured and expressed relative to baseline. Synaptic records are the average of 4 consecutive responses and stimulus artefacts are blanked for clarity. Recordings were made using an Axopatch 200B amplifier and analyzed using LTP v2.4 software. In synaptic plasticity studies, the degree of potentiation was calculated 30-35 min after HFS and expressed as a percentage of baseline±standard error of mean (SEM).
To determine if the leptin hexamers influence the magnitude of activity-dependent synaptic plasticity, standard extracellular recording techniques were used to assess the effects of leptin (116-121, 117-122, 118-123, 120-125, 124-129 and 125-130) on the magnitude of LTP induced by high frequency stimulation (100 Hz, 1 s) in acute hippocampal slices. […] In parallel studies, application of leptin (118-123; 158±3.8%; n=7; p<0.05; FIG. 8) or leptin (120-125; to 163±8.8% of baseline; n=5; p<0.05) also facilitated LTP, compared to control LTP (FIG. 8).

Row | Compound | cross-sectional area of individual mitochondria, 6-OHDA alone (mitochondria) | mitochondrial fragmentation, 6-OHDA alone (mitochondria) | GluA1 surface expression, hexamer study [1] | increase in mitochondrial activity compared with Aβ1-42 alone [2] | reduction of LDH release compared with Aβ1-42 alone, hexamer study [3] | reduction of p-tau expression compared with Aβ1-42 alone [4] | magnitude of LTP after HFS (100 Hz, 1 s) (acute hippocampal slices)
1 | NCCc1cc(O)c(O)cc1O [6-OHDA, 6-hydroxydopamine, reference compound] | increase in the cross-sectional area of individual mitochondria | decrease in mitochondrial fragmentation | – | – | – | – | –
2 | LQKPES (SCHLPWASGL; listed as Homo sapiens) [leptin (125-130)] | – | – | 98±5 % of control | did not | did not | did not | 137±2.4 % of baseline
3 | GLQKPE (listed as Mus musculus) [leptin (124-129)] | – | – | 89±6 % of control | did not | did not | did not | 137±5.6 % of baseline
